What was measured:
laboratory rats = assay: Efficacy for general anesthesia in rats (i.v. tail vein), with mortality; assay type: in vivo, female CD laboratory rats; conditions: 20-21 mg/kg
Procedure: Diprivan® (Diprivan® 1%, Injection propofol, 10 mg/ml, Emulsion for I.V. Administration, Stuart Pharmaceuticals) was purchased. It is described by the manufacturer as a sterile, nonpyrogenic emulsion containing 10 mg/mL propofol, 100 mg/ml soybean oil, 12 mg/mL lecithin in an aqueous vehicle. It was maintained at room temperature as described by the manufacturer. Samples were taken using aseptic technique.
Lecithin-coated propofol microdroplets containing 6.8% propofol and Diprivan® were injected into the tail veins of 150 gram female CD laboratory rats (Charles River Laboratories, Wilmington, Mass.) restrained in a Decapicone® (Braintree Scientific, Braintree, Mass.). The volumes of 6.8% (w/v) microdroplet propofol injected were 10, 20, 30 or 50 μL. The injections were accomplished in 2-3 seconds. Volumes of 1% Diprivan® injections were 100, 200, 300 or 500 μL. The injections were accomplished in 5-15 seconds. The animals were observed during the injections, and the time required for loss of consciousness ("time to unconsciousness") was recorded. Then the animals were removed from the Decapicone® and placed on their sides and were tested for startle response to a loud clap. […] The time to regain startle response ("time to startle response") was recorded. The time to recover the righting response, indicated by spontaneous attempt to stand, was also measured. […]

[1] = cited from earlier work
[2] = pure oily state; cited from earlier work

CC(C)c1cccc(C(C)C)c1O [Propofol, 2,6-diisopropylphenol]
Mortality (in words) (laboratory rats): significant mortality
Water solubility [1]: water-insoluble
Irritancy [2]: irritant
